Article PMC4721062, “Oxadiazole-2-oxides may have other functional targets, in addition to SjTGR, through which they cause mortality in Schistosoma japonicum” (Parasites & Vectors, 2016)
Entries after “also recorded” stand apart in the source; their conditions may differ. Where two headings read alike, the source gives them in different places.

Key:
recombinant SjTGR = biological target: T1, recombinant SjTGR (Schistosoma japonicum, UniProt B5THG7); experiment: Inhibition of TrxR activity of recombinant SjTGR (DTNB assay); format: biochemical; conditions: 50 nM SjTGR, 1 mM NADPH, 15 min preincubation, DTNB reduction; for IC50: read-out: IC50 of SjTGR
T1 sequence (B5THG7 1-596): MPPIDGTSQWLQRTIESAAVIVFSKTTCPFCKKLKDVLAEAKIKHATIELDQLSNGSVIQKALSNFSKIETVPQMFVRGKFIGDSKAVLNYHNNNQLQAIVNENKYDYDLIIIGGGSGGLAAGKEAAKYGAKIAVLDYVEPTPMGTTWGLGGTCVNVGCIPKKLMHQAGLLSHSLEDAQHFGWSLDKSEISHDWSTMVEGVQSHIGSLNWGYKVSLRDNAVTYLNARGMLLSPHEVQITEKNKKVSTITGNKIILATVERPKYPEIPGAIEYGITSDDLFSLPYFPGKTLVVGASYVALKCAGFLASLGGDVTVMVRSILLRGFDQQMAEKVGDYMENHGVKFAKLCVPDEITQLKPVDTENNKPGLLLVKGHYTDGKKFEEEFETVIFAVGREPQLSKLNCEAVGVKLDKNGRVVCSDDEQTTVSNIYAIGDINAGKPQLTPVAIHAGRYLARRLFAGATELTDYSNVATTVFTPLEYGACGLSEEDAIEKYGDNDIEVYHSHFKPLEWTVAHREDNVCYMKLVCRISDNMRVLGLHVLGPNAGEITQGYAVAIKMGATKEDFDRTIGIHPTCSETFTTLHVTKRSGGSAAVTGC
Experimental: The purified recombinant SjTGR proteins were produced according to the method described by Song et al.. The inhibition of TrxR activity by the recombinant SjTGR was performed as reported by Rai et al.. Briefly, 50 nM SjTGR and 1 mM NADPH were incubated with different concentrations of oxadiazole-2-oxides (2, 4, 6, 10, 20 μM) for 15 min at room temperature. Then, potassium phosphate buffer (pH 7.4) containing 10 mM EDTA, 100 μM NADPH, and 3 mM DTNB was added to start the reaction. The increase of absorbance at 412 nm was monitored during the first 2 min. All assays were done in triplicate.
50 nM SjTGR and 1 mM NADPH were incubated with different concentrations of oxadiazole-2-oxides (2, 4, 6, 10, 20 μM) for 15 min at room temperature. Then, potassium phosphate buffer (pH 7.4) containing 10 mM EDTA, 100 μM NADPH, 3 mM DTNB was added to start the reaction. The increase in absorbance at 412 nm was monitored during the first 2 min. All assays were done in triplicate. Results shown are the mean ± SD (n = 3)

juvenile S. japonicum = experiment: microbe, parasite or virus in culture; format: cell-based; conditions: for Killing activity 24hr / Killing activity 48hr / Killing activity 72hr / killing at 2 µM / killing at 5 µM / killing at 50 µM: juvenile worms
Experimental: Infected Oncomelania hupensis, provided by the Department of Snail Biology, Jiangsu Institute of Parasitic Diseases, were incubated at 25–28 °C, under illumination, for 2 h to hatch S. japonicum cercariae. The cercariae were collected from the water surface with clean cover glass and placed into a centrifuge tube using pre cooled RPMI 1640. Centrifugation was performed for 1 min at 1500 rpm, and then the steps above were repeated. After centrifugation, the supernatant solution was removed. The cercariae at the bottom were washed twice and resuspended with RPMI 1640. Approximately 20–30 cercariae (1 mL of the resuspension medium) were added to one well in a 24-well culture plate. They were incubated overnight at 37 °C with 5 % CO2. The survival rates and number of tails shed were observed under an inverted microscope. Cercariae that had shed their tails were used as juvenile S. japonicum.
20–30 juvenile worms were transferred into each well of a 24-well culture plate, containing 2 mL RPMI 1640 medium, 20 mM HEPES, 100 IU/mL penicillin, […] streptomycin and 10 % fetal bovine serum. Then, oxadiazole-2-oxides (2, 5, 10, and 50 μM), diluted with the RPMI 1640 medium, were added to their allocated wells. The worms in the negative control wells were treated with equal volumes of RPMI 1640 or DMSO and worms treated with AS were observed as positive controls. The juvenile worms’ survival rates were observed under an inverted phase contrast microscope (Leica, Wetzlar, Germany) at 24, 48 and 72 h. Parasite death was defined as an unclear internal structure of the juvenile worms, with incomplete tegument and contents overflowing radially, or unclear internal structure with complete tegument, but having no motor activity during 1 min of continuous observation. All assays were repeated three times.
^b Data collected by visual examination of worm movement and shape; % D = The number of worms dead / The total number of worms observed, and worms dead judged by unclear internal structure of juvenile worms with uncompleted tegument, and contents overflowing radially, or unclear internal structure with complete tegument, but having no motor activity during 1 min of continuous observation. The data presented are the average of three independent experiments.

adult S. japonicum = experiment: microbe, parasite or virus in culture; format: cell-based; conditions: for Killing activity 24hr / Killing activity 48hr / Killing activity 72hr / killing at 25 µM / killing at 50 µM / killing at 100 µM: adult worms
Text: ICR mice (20–22 g), were obtained from the Shanghai Sub-Center of Experimental Animals, Chinese Academy of Sciences. They were maintained at the Department of Experimental Animals, Jiangsu Institute of Parasitic Diseases. To infect each mouse, its abdominal skin was exposed to 50 S. japonica cercariae. All of the mice were executed to collect S. japonica adult worms, through portal vein perfusion, 35 days post-infection. The adult S. japonica collected were washed with RPMI 1640 medium and then kept in RPMI 1640 medium (pH 7.5) with HEPES 20 mM, penicillin (100 IU/mL), streptomycin ([…]) and 10 % fetal bovine serum. Then, two pairs of adult worms were transferred into each well of a 24-well culture plate, with 2 mL of the same medium. The worms were cultured at 37 °C in a humid atmosphere with 5 % CO2.
Adult worms were cultured in a 24-well culture plate for 30–60 min at 37 °C, in a humid atmosphere with 5 % CO2. Then, oxadiazole-2-oxides at different concentrations (10, 25, 50, 100 μM) were added. Equal volumes of RPMI 1640 or DMSO were applied as negative controls, while PZQ was applied as a positive control. The adult worm mobility and parasite survival rates were monitored using an inverted phase contrast microscope, at 24, 48 and 72 h. Parasite death was defined as there being no motor activity during 2 min of continuous observation, and morphological and tegumental alterations. All assays were repeated three times.
^b Data collected by visual examination of worm movement and shape; n.e. […] The data presented are the average of three independent experiments.

[1] = Schistosoma japonicum, 50 μM, 24 h, read-out: Killing activity 24hr
[2] = Schistosoma japonicum, 50 μM, 48 h, read-out: Killing activity 48hr
[3] = Schistosoma japonicum, 50 μM, 72 h, read-out: Killing activity 72hr

`N#Cc1c(-c2ccc(OCCCOc3ccc(-c4no[n+]([O-])c4C#N)cc3)cc2)no[n+]1[O-]` [Compound 21] was tested, and the “IC50 of SjTGR” value (recombinant SjTGR) was “did not inhibit SjTGR; also recorded: neither did they inhibit the SjTGR activity”, the IC50 (recombinant SjTGR) was over 20 µM and the “Killing activity 24hr” value (juvenile S. japonicum; 2 μM, 24 h) was 22.5%D. The “Killing activity 48hr” value (juvenile S. japonicum; 2 μM, 48 h) was 22.5%D, the “Killing activity 72hr” value (juvenile S. japonicum; 2 μM, 72 h) was 27.5%D and the “Killing activity 24hr” value (juvenile S. japonicum; 5 μM, 24 h) was 26.7%D. The “Killing activity 48hr” value (juvenile S. japonicum; 5 μM, 48 h) was 26.7%D, the “Killing activity 72hr” value (juvenile S. japonicum; 5 μM, 72 h) was 30.0%D and the “Killing activity 24hr” value (juvenile S. japonicum; 10 μM, 24 h) was 30.0%D. The “Killing activity 48hr” value (juvenile S. japonicum; 10 μM, 48 h) was 33.3%D, the “Killing activity 72hr” value (juvenile S. japonicum; 10 μM, 72 h) was 56.7%D and the “Killing activity 24hr” value (juvenile S. japonicum; 50 μM, 24 h) was 33.3%D. For the same compound, the “Killing activity 48hr” value (juvenile S. japonicum; 50 μM, 48 h) was 38.3%D, the “Killing activity 72hr” value (juvenile S. japonicum; 50 μM, 72 h) was 67.0%D and the “Killing activity 24hr” value (adult S. japonicum; 10 μM, 24 h) was “n.e”. For the same compound, the “Killing activity 48hr” value (adult S. japonicum; 10 μM, 48 h) was “sluggish”, the “Killing activity 72hr” value (adult S. japonicum; 10 μM, 72 h) was “sluggish” and the “Killing activity 24hr” value (adult S. japonicum; 25 μM, 24 h) was “n.e”. For the same compound, the “Killing activity 48hr” value (adult S. japonicum; 25 μM, 48 h) was 100%D, the “Killing activity 72hr” value (adult S. japonicum; 25 μM, 72 h) was 100%D and the “Killing activity 24hr” value (adult S. japonicum; 50 μM, 24 h) was 66.7%D. For the same compound, the “Killing activity 48hr” value (adult S. japonicum; 50 μM, 48 h) was 100%D, the “Killing activity 72hr” value (adult S. japonicum; 50 μM, 72 h) was 100%D and the “Killing activity 24hr” value (adult S. japonicum; 100 μM, 24 h) was 75.0%D. For the same compound, the “Killing activity 48hr” value (adult S. japonicum; 100 μM, 48 h) was 100%D and the “Killing activity 72hr” value (adult S. japonicum; 100 μM, 72 h) was 100%D.

`N#Cc1c(-c2ccc(CBr)cc2)no[n+]1[O-]` [Compound 22] gave an IC50 (recombinant SjTGR) of 9.7 µM, a mortality at 50 µM (juvenile S. japonicum; Schistosoma japonicum, 24 h, read-out: Mortality of juvenile worms) of over 70% and a killing at 2 µM (juvenile S. japonicum; Schistosoma japonicum, 2 μM, 24 h, read-out: Killing activity 24hr) of 18.1%. The killing at 2 µM (juvenile S. japonicum; Schistosoma japonicum, 2 μM, 48 h, read-out: Killing activity 48hr) was 30.1%, the killing at 2 µM (juvenile S. japonicum; Schistosoma japonicum, 2 μM, 72 h, read-out: Killing activity 72hr) was 41% and the killing at 5 µM (juvenile S. japonicum; Schistosoma japonicum, 5 μM, 24 h, read-out: Killing activity 24hr) was 18.6%. It also gave a killing at 5 µM (juvenile S. japonicum; Schistosoma japonicum, 5 μM, 48 h, read-out: Killing activity 48hr) of 30.2%, a killing at 5 µM (juvenile S. japonicum; Schistosoma japonicum, 5 μM, 72 h, read-out: Killing activity 72hr) of 41.8% and a killing at 50 µM (juvenile S. japonicum; [1]) of 100%. For the same compound, the killing at 50 µM (juvenile S. japonicum; [2]) was 100%, the killing at 50 µM (juvenile S. japonicum; [3]) was 100% and the “Killing activity 48hr” value (juvenile S. japonicum; 10 μM, 48 h) was 41.4%D. The “Killing activity 72hr” value (juvenile S. japonicum; 10 μM, 72 h) was 69.0%D, the mortality at 25 µM (adult S. japonicum; Schistosoma japonicum, 24 h, read-out: Mortality of adult worms) was over 75% and the killing at 25 µM (adult S. japonicum; Schistosoma japonicum, 25 μM, 24 h, read-out: Killing activity 24hr) was 90%. It also gave a killing at 25 µM (adult S. japonicum; Schistosoma japonicum, 25 μM, 48 h, read-out: Killing activity 48hr) of 100%, a killing at 25 µM (adult S. japonicum; Schistosoma japonicum, 25 μM, 72 h, read-out: Killing activity 72hr) of 100% and a killing at 50 µM (adult S. japonicum; [1]) of 90.9%. For the same compound, the killing at 50 µM (adult S. japonicum; [2]) was 100%, the killing at 50 µM (adult S. japonicum; [3]) was 100% and the killing at 100 µM (adult S. japonicum; Schistosoma japonicum, 100 μM, 24 h, read-out: Killing activity 24hr) was 100%. For the same compound, the killing at 100 µM (adult S. japonicum; Schistosoma japonicum, 100 μM, 48 h, read-out: Killing activity 48hr) was 100%, the killing at 100 µM (adult S. japonicum; Schistosoma japonicum, 100 μM, 72 h, read-out: Killing activity 72hr) was 100% and the “Killing activity 24hr” value (adult S. japonicum; 10 μM, 24 h) was 44.4%D. The “Killing activity 48hr” value (adult S. japonicum; 10 μM, 48 h) was 66.7%D and the “Killing activity 72hr” value (adult S. japonicum; 10 μM, 72 h) was 88.9%D.
